# Reference: US5948791A, “Quinoline derivatives for treating malaria” (Hoffmann-La Roche Inc., priority 1995, dated 1999)
# Where two headings read alike, the source gives them in different places.
# Experiments:
# [1] = tested on: Plasmodium falciparum strain NF54; assay: Growth inhibition of Plasmodium falciparum NF54 (chloroquine-sensitive) in vitro, [G-3H]-hypoxanthin incorporation; format: cell-based; conditions: chloroquine-sensitive strain NF54, 72 h, read-out: IC50 for P. falciparum NF54
# Summary of the method: (§1)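 Asynchronous intraerythrocytic cultures in human A+ erythrocytes (0.7% parasitemia, 2.5% suspension) in RPMI 1640 with HEPES, NaHCO3 and human serum, exposed to compound titrated over 6-7 steps for 72 h at 37° C, 3% O2. Growth by [G-3H]-hypoxanthin incorporation against untreated controls; IC50 by logit regression.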
# Plasmodium falciparum K1 = assay: Growth inhibition of Plasmodium falciparum K1 (chloroquine-resistant) in vitro, [G-3H]-hypoxanthin incorporation; format: cell-based, Plasmodium falciparum (strain K1); conditions: for IC50: Plasmodium falciparum, K1, 72 h, read-out: IC50 for P. falciparum K1; for Resistance index: ratio of the IC50 for K1 and the IC50 for NF54
# Summary of the method: as §1
# Plasmodium berghei = assay: animal or person; format: in vivo, Plasmodium berghei (strain ANKA) in mice; conditions: Plasmodium berghei, mice, blood smears 48 h after treatment
# Summary of the method: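 Male albino mice (~25 g) infected i.v. on D0 with P. berghei ANKA (0.2 ml of 10^8 parasitized erythrocytes/ml); single s.c. and p.o. dose 24 h post-infection, 10 mg/kg screen then titration.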
# [2] = po, single peroral dose of 10 mg/kg, read-out: Growth inhibition in % after po administration (GI%, percentage reduction of the parasitemia)
# [3] = sc, single subcutaneous dose of 10 mg/kg, read-out: Growth inhibition in % after sc administration (GI%, percentage reduction of the parasitemia)
SMILES,IC50 [1] [ng/mL],IC50 (Plasmodium falciparum K1) [ng/mL],Resistance index (Plasmodium falciparum K1),inhibition in vivo at 10 mg/kg (Plasmodium berghei; [2]) [%],inhibition in vivo at 10 mg/kg (Plasmodium berghei; [3]) [%]
"COc1ccc(CCN[C@H]2CC[C@H](Nc3ccnc4cc(Cl)ccc34)CC2)cc1.Cl.Cl [Example 92, trans-N1-(7-Chloro-quinolin-4-yl)-N4-[2-(4-methoxy-phenyl)-ethyl]-cyclohexane-1,4-diamine dihydrochloride]",2.2,8,3.6,85,99.7
"Cl.Cl.O=[N+]([O-])c1ccc(CCN[C@H]2CC[C@H](Nc3ccnc4cc(Cl)ccc34)CC2)cc1 [Example 93, trans-N1-(7-Chloro-quinolin-4-yl)-N4-[2-(4-nitro-phenyl)-ethyl]-cyclohexane-1,4-diamine dihydrochloride]",3.4,8.3,2.4,98,99
"COc1cc(CCN[C@H]2CC[C@H](Nc3ccnc4cc(Cl)ccc34)CC2)cc(OC)c1.Cl.Cl [Example 94, trans-N1-(7-Chloro-quinolin-4-yl)-N4-[2-(3,5-dimethoxy-phenyl)-ethyl]-cyclohexane-1,4-diamine dihydrochloride]",2.9,9.8,3.4,99,99.9
"Cl.Cl.Clc1ccc2c(N[C@H]3CC[C@H](NCCc4ccc5c(c4)OCO5)CC3)ccnc2c1 [Example 95, trans-N1-(2-Benzo[1,3]dioxol-5-yl-ethyl)-N4-(7-chloro-quinolin-4-yl)-cyclohexane-1,4-diamine dihydrochloride]",2.7,9.3,3.4,98,99.7
"Cl.Cl.Clc1cccc(CCN[C@H]2CC[C@H](Nc3ccnc4cc(Cl)ccc34)CC2)c1 [Example 96, trans-N1-[2-(3-Chloro-phenyl)-ethyl]-N4-(7-chloro-quinolin-4-yl)-cyclohexane-1,4-diamine dihydrochloride]",1.6,9,5.6,95,98
"COc1ccc(OC)c(CCN[C@H]2CC[C@H](Nc3ccnc4cc(Cl)ccc34)CC2)c1.Cl.Cl [Example 97, trans-N1-(7-Chloro-quinolin-4-yl)-N4-[2-(2,5-dimethoxy-phenyl)-ethyl]-cyclohexane-1,4-diamine dihydrochloride]",4.1,17.8,4.3,49,99
"Cl.Cl.Clc1ccc2c(N[C@H]3CC[C@H](NCCc4ccc(Oc5ccccc5)cc4)CC3)ccnc2c1 [Example 98, trans-N1-(7-Chloro-quinolin-4-yl)-N4-[2-(4-phenoxy-phenyl)-ethyl]-cyclohexane-1,4-diamine dihydrochloride]",4.5,8.5,1.9,50,93
"Cl.Cl.Clc1ccc2c(N[C@H]3CC[C@H](NCCc4ccc(Cl)c(Cl)c4)CC3)ccnc2c1 [Example 99, trans-N1-(7-Chloro-quinolin-4-yl)-N4-[2-(3,4-dichloro-phenyl)-ethyl]-cyclohexane-1,4-diamine dihydrochloride]",3.3,4.2,1.3,91,96
"COc1ccc(CN[C@H]2CC[C@H](Nc3ccnc4cc(Cl)ccc34)CC2)cc1.Cl.Cl [Example 100, trans N1-(7-Chloro-quinolin-4-yl)-N4-(4-methoxy-benzyl)-cyclohexane-1,4-diamine dihydrochloride]",1.9,4,2.1,14,99
